Reference: the NIST ThermoML archive (doi:10.1021/je800110r)

Conditions: 323.14 K, Liquid, Vibrating tube method

CCCCCCCCCC [decane]
Conditions | mass density [kg/m3]
13785 kPa | 718.8
13804 kPa | 718.9
13828 kPa | 718.9
14191 kPa | 719.3
14209 kPa | 719.3
14225 kPa | 719.4
14243 kPa | 719.2
14258 kPa | 719.3
14293 kPa | 719.3
14335 kPa | 719.3
14443 kPa | 719.4
14465 kPa | 719.4
14487 kPa | 719.5
14504 kPa | 719.5
14521 kPa | 719.5
14541 kPa | 719.5
14562 kPa | 719.5
14576 kPa | 719.5
14589 kPa | 719.5
14598 kPa | 719.5
14609 kPa | 719.6
14666 kPa | 719.6
14766 kPa | 719.7
14778 kPa | 719.6
14789 kPa | 719.6
14800 kPa | 719.6
14810 kPa | 719.7
14824 kPa | 719.7
14837 kPa | 719.7
14850 kPa | 719.7
14864 kPa | 719.8
14876 kPa | 719.8
14889 kPa | 719.7
14900 kPa | 719.7
14913 kPa | 719.8
14923 kPa | 719.9
14931 kPa | 719.9
14941 kPa | 719.8
14955 kPa | 719.8
14964 kPa | 719.8
14976 kPa | 719.9
14990 kPa | 719.9
15000 kPa | 719.8
15350 kPa | 720.2
15364 kPa | 720.1
15378 kPa | 720.2
15435 kPa | 720.1
15447 kPa | 720.2
15460 kPa | 720.2
15476 kPa | 720.3
15490 kPa | 720.3
15507 kPa | 720.3
15517 kPa | 720.2
15527 kPa | 720.3
15542 kPa | 720.4
15556 kPa | 720.2
15567 kPa | 720.3
15581 kPa | 720.4
15594 kPa | 720.3
15610 kPa | 720.3
15624 kPa | 720.4
15639 kPa | 720.3
15655 kPa | 720.4
15673 kPa | 720.4
15738 kPa | 720.4
15754 kPa | 720.6
15765 kPa | 720.5
15776 kPa | 720.5
15787 kPa | 720.5
15805 kPa | 720.5
15818 kPa | 720.6
15829 kPa | 720.6
15844 kPa | 720.6
15853 kPa | 720.6
15866 kPa | 720.5
15877 kPa | 720.5
15890 kPa | 720.5
15904 kPa | 720.6
15915 kPa | 720.5
15926 kPa | 720.6
15940 kPa | 720.6
15955 kPa | 720.6
15970 kPa | 720.6
15982 kPa | 720.7
16000 kPa | 720.7
16012 kPa | 720.6
16029 kPa | 720.7
16041 kPa | 720.8
16056 kPa | 720.6
16067 kPa | 720.7
16079 kPa | 720.8
16091 kPa | 720.8
16100 kPa | 720.9
16110 kPa | 720.7
16124 kPa | 720.7
16136 kPa | 720.8
16148 kPa | 720.7
16160 kPa | 720.7
16175 kPa | 720.8
16192 kPa | 720.9
16206 kPa | 720.8
16223 kPa | 720.9
16235 kPa | 720.9
16249 kPa | 720.9
16265 kPa | 720.8
16281 kPa | 720.9
16305 kPa | 720.9
16323 kPa | 720.9
16485 kPa | 721.1
16497 kPa | 721
16509 kPa | 721.1
16526 kPa | 721
16540 kPa | 721.1
16554 kPa | 721.1
16570 kPa | 721.1
16583 kPa | 721
16614 kPa | 721.1
16658 kPa | 721.2
17010 kPa | 721.4
17025 kPa | 721.5
17272 kPa | 721.7
17288 kPa | 721.6
17305 kPa | 721.6
17323 kPa | 721.8
17337 kPa | 721.8
17350 kPa | 721.7
17369 kPa | 721.7
17387 kPa | 721.7
17405 kPa | 721.7
17419 kPa | 721.7
17442 kPa | 721.7
17455 kPa | 721.9
17473 kPa | 721.8
17491 kPa | 721.9
17510 kPa | 721.8
17532 kPa | 721.9
17546 kPa | 721.9
17561 kPa | 721.9
17579 kPa | 721.9
17593 kPa | 721.9
17612 kPa | 722
17645 kPa | 721.9
17659 kPa | 722
17677 kPa | 722
17694 kPa | 722
17715 kPa | 721.9
17731 kPa | 722
17751 kPa | 722
17772 kPa | 722
17788 kPa | 722.1
17805 kPa | 722.1
17824 kPa | 722.1
17838 kPa | 722.1
17860 kPa | 722.2
17879 kPa | 722.1
17901 kPa | 722.3
17922 kPa | 722.1
17942 kPa | 722.2
17955 kPa | 722.2
17972 kPa | 722.2
17992 kPa | 722.3
18009 kPa | 722.3
18023 kPa | 722.3
18038 kPa | 722.2
18057 kPa | 722.1
18072 kPa | 722.3
18087 kPa | 722.2
18109 kPa | 722.2
18131 kPa | 722.3
18155 kPa | 722.2
18169 kPa | 722.3
18192 kPa | 722.4
18209 kPa | 722.4
18232 kPa | 722.4
18247 kPa | 722.4
18269 kPa | 722.4
18292 kPa | 722.4
18310 kPa | 722.4
18335 kPa | 722.4
18351 kPa | 722.5
18374 kPa | 722.5
18390 kPa | 722.5
18405 kPa | 722.5
18423 kPa | 722.6
18443 kPa | 722.5
18464 kPa | 722.6
18487 kPa | 722.7
18500 kPa | 722.6
18518 kPa | 722.7
18543 kPa | 722.7
18564 kPa | 722.7
18583 kPa | 722.6
18598 kPa | 722.7
18616 kPa | 722.6
18637 kPa | 722.7
18660 kPa | 722.7
18684 kPa | 722.7
18703 kPa | 722.7
18735 kPa | 722.7
18758 kPa | 722.7
18795 kPa | 722.8
18816 kPa | 722.9
18846 kPa | 722.9
18905 kPa | 722.9
18921 kPa | 722.9
18940 kPa | 722.9
18959 kPa | 723
18983 kPa | 722.9
19005 kPa | 723.1
19027 kPa | 723
19043 kPa | 723
19062 kPa | 723.1
19263 kPa | 723.2
19308 kPa | 723.2
19354 kPa | 723.3
19373 kPa | 723.3
19390 kPa | 723.4
19410 kPa | 723.3
19436 kPa | 723.3
19461 kPa | 723.4
19485 kPa | 723.4
19509 kPa | 723.4
19574 kPa | 723.4
19594 kPa | 723.5
19637 kPa | 723.4
19655 kPa | 723.6
19672 kPa | 723.5
19720 kPa | 723.6
19741 kPa | 723.5
19760 kPa | 723.6
19777 kPa | 723.6
19795 kPa | 723.6
19813 kPa | 723.6
19840 kPa | 723.6
19867 kPa | 723.7
19891 kPa | 723.7
19912 kPa | 723.8
19936 kPa | 723.7
19957 kPa | 723.7
20009 kPa | 723.8
20031 kPa | 723.8
20049 kPa | 723.7
20080 kPa | 723.8
20105 kPa | 723.9
20127 kPa | 723.9
20154 kPa | 723.9
20176 kPa | 723.9
20191 kPa | 723.9
20210 kPa | 724
20235 kPa | 723.9
20257 kPa | 724
20286 kPa | 724
20304 kPa | 723.8
20323 kPa | 724
20345 kPa | 724
20363 kPa | 724
20389 kPa | 724.1
20431 kPa | 724.2
20462 kPa | 724
20482 kPa | 724.2
20504 kPa | 724.1
20520 kPa | 724.2
20562 kPa | 724.2
20584 kPa | 724.3
20607 kPa | 724.2
20630 kPa | 724.1
20675 kPa | 724.4
21120 kPa | 724.6
21147 kPa | 724.5
21168 kPa | 724.7
21192 kPa | 724.6
21219 kPa | 724.7
21366 kPa | 724.8
